Source: the supplement of paper PMC10307832

Assays:
Experiment in all cases: relative viability (nuclei count vs DMSO), 5 days (fraction); higher = more cells survive
KIN001-266 + Luminespib = compound: CCN1CCC(CC1)N2C=C(N=N2)CNC3=CC4=C(C(=CN=C4C(=C3)Cl)C#N)NC5=CC(=C(C=C5)F)Cl [KIN001-266] + CCNC(=O)c1noc(-c2cc(C(C)C)c(O)cc2O)c1-c1ccc(CN2CCOCC2)cc1 [Luminespib] (partner 0.01 µM)
Procedure, shortened: (§1)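 Relative viability divides the nuclei count in treated wells by that in vehicle wells. Lung cancer cell lines were seeded in 1536-well plates, dosed by pin tool the next day, and fixed and stained after 5 days in one step with final 0.05% Triton X-100, 1% formaldehyde and 1 ug/ml Hoechst. Dosing was a single drug or a fixed anchor-drug dose plus five library-drug doses (not always all listed) in √10 steps, and values are medians of duplicate plates imaged at 4×.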

KIN001-266 + Tozasertib = compound: CCN1CCC(CC1)N2C=C(N=N2)CNC3=CC4=C(C(=CN=C4C(=C3)Cl)C#N)NC5=CC(=C(C=C5)F)Cl [KIN001-266] + Cc1cc(Nc2cc(N3CCN(C)CC3)nc(Sc3ccc(NC(=O)C4CC4)cc3)n2)n[nH]1 [Tozasertib] (partner 0.1 µM)
Procedure, shortened: as §1

KIN001-266 + Foretinib = compound: CCN1CCC(CC1)N2C=C(N=N2)CNC3=CC4=C(C(=CN=C4C(=C3)Cl)C#N)NC5=CC(=C(C=C5)F)Cl [KIN001-266] + COc1cc2c(Oc3ccc(NC(=O)C4(C(=O)Nc5ccc(F)cc5)CC4)cc3F)ccnc2cc1OCCCN1CCOCC1 [Foretinib] (partner 0.25 µM)
Procedure, shortened: as §1

KIN001-266 + AZD7762 = compound: CCN1CCC(CC1)N2C=C(N=N2)CNC3=CC4=C(C(=CN=C4C(=C3)Cl)C#N)NC5=CC(=C(C=C5)F)Cl [KIN001-266] + NC(=O)Nc1cc(-c2cccc(F)c2)sc1C(=O)N[C@H]1CCCNC1 [AZD7762] (partner 0.2 µM)
Procedure, shortened: as §1

Cell Line	relative viability (KIN001-266 + Luminespib; first compound 0.08 µM)	relative viability (KIN001-266 + Luminespib; first compound 0.253 µM)	relative viability (KIN001-266 + Luminespib; first compound 0.8 µM)	relative viability (KIN001-266 + Luminespib; first compound 2.53 µM)	relative viability (KIN001-266 + Luminespib; first compound 8 µM)	relative viability (KIN001-266 + Tozasertib; first compound 0.08 µM)	relative viability (KIN001-266 + Tozasertib; first compound 0.253 µM)	relative viability (KIN001-266 + Tozasertib; first compound 0.8 µM)	relative viability (KIN001-266 + Tozasertib; first compound 2.53 µM)	relative viability (KIN001-266 + Tozasertib; first compound 8 µM)	relative viability (KIN001-266 + Foretinib; first compound 0.08 µM)	relative viability (KIN001-266 + Foretinib; first compound 0.253 µM)	relative viability (KIN001-266 + Foretinib; first compound 0.8 µM)	relative viability (KIN001-266 + Foretinib; first compound 2.53 µM)	relative viability (KIN001-266 + Foretinib; first compound 8 µM)	relative viability (KIN001-266 + AZD7762; first compound 0.08 µM)	relative viability (KIN001-266 + AZD7762; first compound 0.253 µM)	relative viability (KIN001-266 + AZD7762; first compound 0.8 µM)	relative viability (KIN001-266 + AZD7762; first compound 2.53 µM)	relative viability (KIN001-266 + AZD7762; first compound 8 µM)
201T	1.05	1.05	1	1.04	1.06	0.915	0.915	0.915	0.919	0.856	1.07	1.11	1.13	1.12	1.14	0.66	0.629	0.577	0.54	0.681
A549	–	–	–	–	–	–	–	–	–	–	0.95	0.854	1.04	0.87	0.926	–	–	–	–	–
A-427	0.874	0.843	0.979	0.913	0.969	0.24	0.21	0.178	0.186	0.181	1.06	1.07	0.983	0.992	0.971	0.722	0.697	0.761	0.644	0.599
ABC-1	0.757	0.956	0.655	1.02	0.378	0.156	0.227	0.199	0.166	0.204	1.02	1.12	1.1	1.08	0.873	0.991	0.856	0.745	0.761	0.837
BEN	0.559	0.651	0.861	0.288	0.458	0.479	0.534	0.491	0.484	0.506	0.708	0.88	0.755	0.407	0.691	0.729	0.705	0.676	0.539	0.709
CAL-12T	0.363	0.322	0.499	0.475	0.2	0.345	0.3	0.291	0.312	0.255	1.21	1.01	1.02	0.974	1.11	0.633	0.639	0.574	0.642	0.606
COR-L23	0.638	0.636	0.694	0.621	0.423	0.19	0.182	0.206	0.164	0.151	0.905	0.944	0.869	0.933	0.776	–	–	–	–	–
COR-L 105	0.616	0.802	0.758	0.743	1.02	0.388	0.322	0.381	0.342	0.296	0.795	1.09	0.92	0.915	0.758	–	–	–	–	–
Calu-6	–	–	–	–	–	–	–	–	–	–	0.921	0.861	0.925	0.917	0.609	–	–	–	–	–
ChaGo-K-1	0.689	0.741	0.385	0.57	0.327	0.245	0.218	0.213	0.207	0.198	0.904	0.989	0.756	0.793	0.871	0.858	0.924	0.856	0.811	0.585
EBC-1	–	–	–	–	–	–	–	–	–	–	0.0963	0.1	0.105	0.128	0.117	–	–	–	–	–
EKVX	0.86	0.869	0.735	0.89	0.986	0.319	0.376	0.374	0.392	0.409	0.858	0.744	0.642	0.781	0.624	0.706	0.824	0.728	0.667	0.657
EMC-BAC-2	1.27	1.25	1.11	1.18	1.25	0.307	0.316	0.292	0.29	0.281	1.13	1.09	0.972	1.03	1	1.17	1.18	1.15	1.16	1.21
EPLC-272H	0.253	0.268	0.323	0.181	0.176	0.258	0.377	0.383	0.244	0.208	0.777	0.763	0.728	0.636	0.208	0.304	0.212	0.191	0.185	0.371
H3255	0.909	0.945	0.935	0.847	0.912	0.699	0.601	0.502	0.499	0.512	0.801	0.862	0.797	0.957	0.725	0.846	0.731	0.792	0.908	0.8
HARA	0.704	0.718	0.395	0.878	0.307	0.124	0.13	0.102	0.0995	0.0873	0.814	0.884	0.878	0.858	0.821	0.306	0.369	0.364	0.233	0.261
HCC-15	0.232	0.475	0.241	0.248	0.136	0.443	0.358	0.25	0.24	0.19	0.913	0.964	0.886	0.817	0.707	1.23	1.14	1.18	0.6	1.06
HCC-44	1.02	1.04	1.1	1.01	1.19	0.886	0.917	0.976	0.987	0.865	–	–	–	–	–	1.04	1.01	0.989	0.969	1.05
HCC-78	–	–	–	–	–	0.404	0.444	–	0.373	0.317	0.529	0.588	–	0.575	0.527	0.654	0.603	0.469	0.619	0.694
